Measured values from the supplement of paper PMC11619387.
Converted amounts (≈) assume the structure as drawn.

Key:
[1] = tested on: Pseudomonas aeruginosa PAO1-Xen41; assay: Emax, maximal drug effect on net growth rate (fitted lower asymptote) (per hour (slope of log luminescence)); higher = weaker maximal killing (less negative)
Method: (§1)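 Time-kill assays of bioluminescent P. aeruginosa PAO1-Xen41 (start ~5e6 CFU/mL) in 96-well plates at 37 °C, 150 rpm. Luminescence was read hourly for 20 h in cation-adjusted Mueller-Hinton broth, either non-conditioned (MH broth with or without supplements) or conditioned by one of 13 CF-associated species, then filter-sterilised and nutrient-replenished. Growth/kill rates came from log-linear regression of the exponential phase at 9-10 antibiotic concentrations, and Hill (Emax) models were fitted with drc for each replicate.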

[2] = tested on: Pseudomonas aeruginosa PAO1-Xen41; assay: EC50 of growth/kill rate concentration-effect curve
Method: as §1

[3] = tested on: Pseudomonas aeruginosa PAO1-Xen41; assay: Hill coefficient of concentration-effect curve (unitless); higher = steeper concentration-effect curve
Method: as §1

C[C@H]1[C@H](NC(=O)/C(=N\OC(C)(C)C(=O)O)c2csc(N)n2)C(=O)N1S(=O)(=O)O [aztreonam]
Conditions	EC50, [2] [µg/mL]	Emax, [1]	Hill coefficient, [3]
medium (conditioned by secondary species or non-conditioned control): A. baumannii	4.5 (≈ 10.3 µM)	-0.0894	6.71
medium (conditioned by secondary species or non-conditioned control): A. fumigatus	5.15 (≈ 11.8 µM)	-0.0521	5.79
medium (conditioned by secondary species or non-conditioned control): A. xylosoxidans	4.96 (≈ 11.4 µM)	-0.0816	6.69
medium (conditioned by secondary species or non-conditioned control): B. cepacia	4.4 (≈ 10.1 µM)	-0.108	7.76
medium (conditioned by secondary species or non-conditioned control): C. albicans	6.25 (≈ 14.4 µM)	-0.0614	3.57
medium (conditioned by secondary species or non-conditioned control): H. influenzae	5.7 (≈ 13.1 µM)	-0.196	1.98
medium (conditioned by secondary species or non-conditioned control): M. abcessus	4.66 (≈ 10.7 µM)	-0.0657	6.22
medium (conditioned by secondary species or non-conditioned control): M. avium	4.58 (≈ 10.5 µM)	-0.0782	6.26
medium (conditioned by secondary species or non-conditioned control): M. catarrhalis	5.07 (≈ 11.6 µM)	-0.16	4.2
medium (conditioned by secondary species or non-conditioned control): MH broth	4.48 (≈ 10.3 µM)	-0.0757	7.92
medium (conditioned by secondary species or non-conditioned control): MH broth + ADC	4.55	-0.0421	5.14
medium (conditioned by secondary species or non-conditioned control): MH broth + LHB + NAD	4.7	-0.148	3.43
medium (conditioned by secondary species or non-conditioned control): MH broth + glucose	5.04	-0.0548	4.64
medium (conditioned by secondary species or non-conditioned control): R. mannitolilytica	4.356 (≈ 10 µM)	-0.0751	7.94
medium (conditioned by secondary species or non-conditioned control): S. aureus	4.88 (≈ 11.2 µM)	-0.072	4.66
medium (conditioned by secondary species or non-conditioned control): S. maltophilia	4.32 (≈ 9.92 µM)	-0.114	3.3
medium (conditioned by secondary species or non-conditioned control): S. pneumoniae	5.6 (≈ 12.9 µM)	-0.138	3.85

CC(C)(O/N=C(\C(=O)N[C@@H]1C(=O)N2C(C(=O)[O-])=C(C[n+]3ccccc3)CS[C@H]12)c1csc(N)n1)C(=O)O [ceftazidime]
Conditions	EC50, [2] [µg/mL]	Emax, [1]	Hill coefficient, [3]
medium (conditioned by secondary species or non-conditioned control): A. baumannii	1.62 (≈ 2.96 µM)	-0.122	2.12
medium (conditioned by secondary species or non-conditioned control): A. fumigatus	2.05 (≈ 3.75 µM)	-0.109	3.33
medium (conditioned by secondary species or non-conditioned control): A. xylosoxidans	1.6 (≈ 2.92 µM)	-0.132	2.19
medium (conditioned by secondary species or non-conditioned control): B. cepacia	1.15 (≈ 2.11 µM)	-0.138	2.53
medium (conditioned by secondary species or non-conditioned control): C. albicans	2.02 (≈ 3.69 µM)	-0.126	3.16
medium (conditioned by secondary species or non-conditioned control): H. influenzae	1.86 (≈ 3.41 µM)	-0.223	2.268
medium (conditioned by secondary species or non-conditioned control): M. abcessus	1.17 (≈ 2.15 µM)	-0.0538	3.08
medium (conditioned by secondary species or non-conditioned control): M. avium	1.19 (≈ 2.19 µM)	-0.0876	3.59
medium (conditioned by secondary species or non-conditioned control): M. catarrhalis	1.12 (≈ 2.05 µM)	-0.166	3.76
medium (conditioned by secondary species or non-conditioned control): MH broth	1.28 (≈ 2.33 µM)	-0.0573	3
medium (conditioned by secondary species or non-conditioned control): MH broth + ADC	1.27	-0.0561	3.55
medium (conditioned by secondary species or non-conditioned control): MH broth + LHB + NAD	0.743	-0.133	5.89
medium (conditioned by secondary species or non-conditioned control): MH broth + glucose	1.71	-0.0864	2.61
medium (conditioned by secondary species or non-conditioned control): R. mannitolilytica	1.067 (≈ 1.95 µM)	-0.0734	3.02
medium (conditioned by secondary species or non-conditioned control): S. aureus	1.12 (≈ 2.05 µM)	-0.069	3.04
medium (conditioned by secondary species or non-conditioned control): S. maltophilia	0.702 (≈ 1.28 µM)	-0.139	3.32
medium (conditioned by secondary species or non-conditioned control): S. pneumoniae	1.71 (≈ 3.12 µM)	-0.159	3.31

O=C(O)c1cn(C2CC2)c2cc(N3CCNCC3)c(F)cc2c1=O [ciprofloxacin]
Conditions	EC50, [2] [µg/mL]	Emax, [1]	Hill coefficient, [3]
medium (conditioned by secondary species or non-conditioned control): A. baumannii	0.0737 (≈ 0.222 µM)	-0.126	4.99
medium (conditioned by secondary species or non-conditioned control): A. fumigatus	0.08478 (≈ 0.256 µM)	-0.125	6.73
medium (conditioned by secondary species or non-conditioned control): A. xylosoxidans	0.0394 (≈ 0.119 µM)	-0.0897	5.96
medium (conditioned by secondary species or non-conditioned control): B. cepacia	–	-0.0915	3.61
medium (conditioned by secondary species or non-conditioned control): C. albicans	0.08689 (≈ 0.262 µM)	-0.0975	6.2
medium (conditioned by secondary species or non-conditioned control): H. influenzae	0.0686 (≈ 0.207 µM)	-0.124	4.89
medium (conditioned by secondary species or non-conditioned control): M. abcessus	0.046 (≈ 0.139 µM)	-0.124	4.82
medium (conditioned by secondary species or non-conditioned control): M. avium	0.0646 (≈ 0.195 µM)	-0.0922	3.72
medium (conditioned by secondary species or non-conditioned control): M. catarrhalis	0.0542 (≈ 0.164 µM)	-0.0659	1.71
medium (conditioned by secondary species or non-conditioned control): MH broth	0.0844 (≈ 0.255 µM)	-0.125	6.8
medium (conditioned by secondary species or non-conditioned control): MH broth + ADC	0.0577	-0.11	3.02
medium (conditioned by secondary species or non-conditioned control): MH broth + LHB + NAD	0.0388	-0.106	4.99
medium (conditioned by secondary species or non-conditioned control): MH broth + glucose	0.0437	-0.101	5.64
medium (conditioned by secondary species or non-conditioned control): R. mannitolilytica	0.0451 (≈ 0.136 µM)	-0.0966	4.94
medium (conditioned by secondary species or non-conditioned control): S. aureus	0.0434 (≈ 0.131 µM)	-0.0957	5.13
medium (conditioned by secondary species or non-conditioned control): S. maltophilia	0.0279 (≈ 0.0843 µM)	-0.0883	3.59
medium (conditioned by secondary species or non-conditioned control): S. pneumoniae	0.0738 (≈ 0.223 µM)	-0.117	4.27

CCC(C)CCCC(=O)N[C@@H](CCN)C(=O)N[C@H](C(=O)N[C@@H](CCN)C(=O)N[C@H]1CCNC(=O)[C@H]([C@@H](C)O)NC(=O)[C@H](CCN)NC(=O)[C@H](CCN)NC(=O)[C@H](CC(C)C)NC(=O)[C@@H](CC(C)C)NC(=O)[C@H](CCN)NC1=O)[C@@H](C)O (stereo partly drawn) [colistin]
Conditions	EC50, [2] [µg/mL]	Emax, [1]	Hill coefficient, [3]
medium (conditioned by secondary species or non-conditioned control): A. baumannii	3.78 (≈ 3.27 µM)	-0.97093	5.23
medium (conditioned by secondary species or non-conditioned control): A. fumigatus	4 (≈ 3.47 µM)	-1.07	0.809
medium (conditioned by secondary species or non-conditioned control): A. xylosoxidans	3.71 (≈ 3.21 µM)	-0.971	4.77
medium (conditioned by secondary species or non-conditioned control): B. cepacia	2.64 (≈ 2.28 µM)	-1.015	1.13
medium (conditioned by secondary species or non-conditioned control): C. albicans	1.65 (≈ 1.43 µM)	-0.9963	1.39
medium (conditioned by secondary species or non-conditioned control): H. influenzae	0.634 (≈ 0.549 µM)	-0.1151	7.12
medium (conditioned by secondary species or non-conditioned control): M. abcessus	1.56 (≈ 1.35 µM)	-0.976	2.24
medium (conditioned by secondary species or non-conditioned control): M. avium	1.04 (≈ 0.899 µM)	-0.954	1.72
medium (conditioned by secondary species or non-conditioned control): M. catarrhalis	0.325 (≈ 0.282 µM)	-0.139	14.6
medium (conditioned by secondary species or non-conditioned control): MH broth	1.45 (≈ 1.26 µM)	-0.963	2.54
medium (conditioned by secondary species or non-conditioned control): MH broth + ADC	0.607	-0.901	11.8
medium (conditioned by secondary species or non-conditioned control): MH broth + LHB + NAD	0.324	-0.156	12.4
medium (conditioned by secondary species or non-conditioned control): MH broth + glucose	1.22	-0.9802	2.92
medium (conditioned by secondary species or non-conditioned control): R. mannitolilytica	1.32 (≈ 1.14 µM)	-0.958	1.77
medium (conditioned by secondary species or non-conditioned control): S. aureus	1.08 (≈ 0.939 µM)	-0.966	2.47
medium (conditioned by secondary species or non-conditioned control): S. maltophilia	3.83 (≈ 3.31 µM)	-0.97063	7.36
medium (conditioned by secondary species or non-conditioned control): S. pneumoniae	0.325 (≈ 0.281 µM)	-0.117	7.9
